What was measured:
[1] = tested on: rape; assay: Postemergent control of plant species; assay type: in vivo, Brassica napus; settings: Brassica napus, post-emergence, 336 h, read-out: percent postemergent control
Procedure, shortened: (§1)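 Growth reduction versus untreated plants of each species, scored about two weeks after spraying, defines control here. Test emulsions contained compound in acetone diluted 1:1 into water bearing 0.1% surfactant; plants were treated at the 2-4 leaf stage in the greenhouse.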

[2] = tested on: sugar beet; assay: Postemergent control of plant species; assay type: in vivo, Beta saccharifera; settings: Beta vulgaris, post-emergence, 336 h, read-out: percent postemergent control
Procedure, shortened: as §1

[3] = tested on: cocklebur; assay: Postemergent control of plant species; assay type: in vivo, Xanthium spp.; settings: Xanthium strumarium, post-emergence, 336 h, read-out: percent postemergent control
Procedure, shortened: as §1

[4] = tested on: annual morning glory; assay: Postemergent control of plant species; assay type: in vivo, Ipomoea spp.; settings: Ipomoea, post-emergence, 336 h, read-out: percent postemergent control
Procedure, shortened: as §1

[5] = tested on: pigweed; assay: Postemergent control of plant species; assay type: in vivo, Amaranthus spp.; settings: Amaranthus retroflexus, post-emergence, 336 h, read-out: percent postemergent control
Procedure, shortened: as §1

[6] = tested on: velvetleaf; assay: Postemergent control of plant species; assay type: in vivo, Abutilon theophrasti; settings: Abutilon theophrasti, post-emergence, 336 h, read-out: percent postemergent control
Procedure, shortened: as §1

[7] = tested on: rice; assay: Postemergent control of plant species; assay type: in vivo, Oryza sativa; settings: Oryza sativa, post-emergence, 336 h, read-out: percent postemergent control
Procedure, shortened: as §1

[8] = tested on: sorghum; assay: Postemergent control of plant species; assay type: in vivo, Sorghum vulgare; settings: Sorghum, post-emergence, 336 h, read-out: percent postemergent control
Procedure, shortened: as §1

[9] = tested on: barnyardgrass; assay: Postemergent control of plant species; assay type: in vivo, Echinochloa crusgalli; settings: Echinochloa crus-galli, post-emergence, 336 h, read-out: percent postemergent control
Procedure, shortened: as §1

[10] = tested on: crabgrass; assay: Postemergent control of plant species; assay type: in vivo, Digitaria spp.; settings: Digitaria sanguinalis, post-emergence, 336 h, read-out: percent postemergent control
Procedure, shortened: as §1

[11] = tested on: yellow foxtail; assay: Postemergent control of plant species; assay type: in vivo, Setaria lutescens; settings: Setaria, post-emergence, 336 h, read-out: percent postemergent control
Procedure, shortened: as §1

[12] = tested on: johnson grass; assay: Postemergent control of plant species; assay type: in vivo, Sorghum halepense; settings: Sorghum halepense, post-emergence, 336 h, read-out: percent postemergent control
Procedure, shortened: as §1

[13] = tested on: wild oats; assay: Postemergent control of plant species; assay type: in vivo, Avena fatua; settings: Avena fatua, post-emergence, 336 h, read-out: percent postemergent control
Procedure, shortened: as §1

[14] = tested on: yellow nutsedge; assay: Postemergent control of plant species; assay type: in vivo, Cyperus esculentus; settings: Cyperus, post-emergence, 336 h, read-out: percent postemergent control
Procedure, shortened: as §1

[15] = tested on: cotton; assay: Preemergent control of plant species; assay type: in vivo, Gossypium spp.; settings: Gossypium hirsutum, pre-emergence, 336 h; 0.25 lb/acre; read-out: percent preemergent control
Procedure, shortened: (§2)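 Seeds planted in good agricultural soil beds; active ingredients then applied to the bed surface as aqueous emulsion at listed rates. Beds kept two weeks in greenhouse with watering. Control scored against water-treated beds.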

[16] = tested on: rape; assay: Preemergent control of plant species; assay type: in vivo, Brassica napus; settings: Brassica napus, pre-emergence, 336 h; 0.25 lb/acre; read-out: percent preemergent control
Procedure, shortened: as §2

[17] = tested on: soybean; assay: Preemergent control of plant species; assay type: in vivo, Glycine max.; settings: Glycine max, pre-emergence, 336 h; 0.25 lb/acre; read-out: percent preemergent control
Procedure, shortened: as §2

[18] = tested on: jimsonweed; assay: Preemergent control of plant species; assay type: in vivo, Datura stramonium; settings: Datura stramonium, pre-emergence, 336 h; 0.25 lb/acre; read-out: percent preemergent control
Procedure, shortened: as §2

[19] = tested on: annual morning glory; assay: Preemergent control of plant species; assay type: in vivo, Ipomoea spp.; settings: Ipomoea, pre-emergence, 336 h; 0.25 lb/acre; read-out: percent preemergent control
Procedure, shortened: as §2

[20] = tested on: pigweed; assay: Preemergent control of plant species; assay type: in vivo, Amaranthus spp.; settings: Amaranthus retroflexus, pre-emergence, 336 h; 0.25 lb/acre; read-out: percent preemergent control
Procedure, shortened: as §2

[21] = tested on: corn; assay: Preemergent control of plant species; assay type: in vivo, Zea mays; settings: Zea mays, pre-emergence, 336 h; 0.25 lb/acre; read-out: percent preemergent control
Procedure, shortened: as §2

[22] = tested on: rice; assay: Preemergent control of plant species; assay type: in vivo, Oryza sativa; settings: Oryza sativa, pre-emergence, 336 h; 0.25 lb/acre; read-out: percent preemergent control
Procedure, shortened: as §2

[23] = tested on: wheat; assay: Preemergent control of plant species; assay type: in vivo, Triticum aestivum; settings: Triticum aestivum, pre-emergence, 336 h; 0.25 lb/acre; read-out: percent preemergent control
Procedure, shortened: as §2

[24] = tested on: barnyardgrass; assay: Preemergent control of plant species; assay type: in vivo, Echinochloa crusgalli; settings: Echinochloa crus-galli, pre-emergence, 336 h; 0.25 lb/acre; read-out: percent preemergent control
Procedure, shortened: as §2

[25] = tested on: crabgrass; assay: Preemergent control of plant species; assay type: in vivo, Digitaria spp.; settings: Digitaria sanguinalis, pre-emergence, 336 h; 0.25 lb/acre; read-out: percent preemergent control
Procedure, shortened: as §2

[26] = tested on: johnson grass; assay: Preemergent control of plant species; assay type: in vivo, Sorghum halepense; settings: Sorghum halepense, pre-emergence, 336 h; 0.25 lb/acre; read-out: percent preemergent control
Procedure, shortened: as §2

[27] = tested on: yellow foxtail; assay: Preemergent control of plant species; assay type: in vivo, Setaria lutescens; settings: Setaria, pre-emergence, 336 h; 0.25 lb/acre; read-out: percent preemergent control
Procedure, shortened: as §2

[28] = tested on: yellow nutsedge; assay: Preemergent control of plant species; assay type: in vivo, Cyperus esculentus; settings: Cyperus, pre-emergence, 336 h; 0.25 lb/acre; read-out: percent preemergent control
Procedure, shortened: as §2

Row | Structure (SMILES) | plant injury at 500 ppm [1] | plant injury at 500 ppm [2] | pest or weed control at 500 ppm [4] | pest or weed control at 500 ppm [5] | pest or weed control at 500 ppm [6] | plant injury at 500 ppm [7] | plant injury at 500 ppm [8] | pest or weed control at 500 ppm [9] | pest or weed control at 500 ppm [10] | pest or weed control at 500 ppm [11] | pest or weed control at 500 ppm [12] | pest or weed control at 500 ppm [13] | pest or weed control at 500 ppm [14] | plant injury at 280.212 g/ha [15] | plant injury at 280.212 g/ha [16] | plant injury at 280.212 g/ha [17] | pest or weed control at 280.212 g/ha [18] | pest or weed control at 280.212 g/ha [19] | plant injury at 280.212 g/ha [21] | plant injury at 280.212 g/ha [22] | further results
1 | CCc1cccc(CC)c1NS(=O)(=O)c1nc2nc(C)cc(C)n2n1 [Compound 33] | 60% | 40% | 60% | 10% | 80% | 0% | 80% | 0% | 0% | 0% | 60% | 0% | 10% | 20% | 80% | 10% | 40% | 0% | 0% | 0% | pest or weed control at 500 ppm [3]: 60%; pest or weed control at 280.212 g/ha [20]: 10%; plant injury at 280.212 g/ha [23]: 40%; pest or weed control at 280.212 g/ha [24]: 50%; pest or weed control at 280.212 g/ha [25]: 10%; pest or weed control at 280.212 g/ha [26]: 0%; pest or weed control at 280.212 g/ha [27]: 0%
2 | CC(=O)N(c1c(Cl)cccc1Cl)S(=O)(=O)c1nc2nc(C)cc(C)n2n1 [Compound 262] | 100% | 100% | 100% | 100% | 100% | 40% | 90% | 100% | 95% | 100% | 100% | 0% | 80% | 90% | 100% | 100% | 100% | 90% | 80% | 95% | plant injury at 280.212 g/ha [23]: 0%; pest or weed control at 280.212 g/ha [24]: 90%; pest or weed control at 280.212 g/ha [26]: 60%; pest or weed control at 280.212 g/ha [27]: 95%; pest or weed control at 280.212 g/ha [28]: 100%
3 | Cc1cc(C)n2nc(S(=O)(=O)Nc3ccccc3I)nc2n1 [Compound 6] | 80% | 90% | 80% | 30% | 90% | 20% | 80% | 35% | 20% | 0% | 80% | 0% | 90% | 70% | 100% | 10% | 0% | 0% | 0% | 80% | pest or weed control at 500 ppm [3]: 90%; pest or weed control at 280.212 g/ha [20]: 100%; plant injury at 280.212 g/ha [23]: 0%; pest or weed control at 280.212 g/ha [24]: 80%; pest or weed control at 280.212 g/ha [25]: 0%; pest or weed control at 280.212 g/ha [26]: 0%; pest or weed control at 280.212 g/ha [28]: 50%

Source: patent US4740233A, “Substituted 1,2,4-triazolo[1,5-a]-pyrimidine-2-sulfonamides and compositions and methods of controlling undesired vegetation and suppressing the nitrification of ammonium nitrogen in soil” (The Dow Chemical Company, priority 1986, dated 1988)
